Molecules are shown by their SMILES.

This assay relates to degranulation of cells to release β-hexosaminidase. Briefly: β-hexosaminidase release from cells, determined by ELISA (allergy triggering / allergy induction). The format is cell-based. To be noted: Ctr results of FIG. 1, stimulant alone. As for the experimental part: […] Comparisons of the sea grape extract (I) alone group, refined sea grape (I) alone group and the control group.
Calcium ionophore A23187 stimulates degranulation of cells to release the allergic mediator, β-hexosaminidase, the concentration of β-hexosaminidase is determined by enzyme-linked immunosorbent assay (ELISA).

Take `CNc1ccc2oc(C[C@H]3O[C@@]4(CC[C@H]3C)O[C@H]([C@H](C)C(=O)c3ccc[nH]3)[C@H](C)C[C@H]4C)nc2c1C(=O)O` [Calcium ionophore A23187]: the “release of β-hexosaminidase” value is “induces release”.

(Values after patent publication US10561692B2, “Allergy-inhibiting sea grape extract, its preparation method and application thereof” (Teh Fong Min International Co., Ltd., priority 2016, dated 2020).)
